According to US20220281821A1, “INDAZOLE COMPOUNDS AND THEIR PHARMACEUTICAL COMPOSITIONS” (Jinan University, priority 2019, published 2022):

Legend:
[1] = molecular target: T1, TRKA (Homo sapiens, UniProt P04629); assay: Z′-LYTE kinase activity assay, TRKA; type: biochemical; conditions: ATP 400 uM
T1 construct: purchased life technologies PV3144
From the text: (§1) Kinase activity assay: Z′-LYTE™ technology (detection by fluorescence, enzyme-conjugated format, based on the difference in sensitivity of phosphorylated and non-phosphorylated peptides to proteolytic cleavage) was applied, and using the principle of fluorescence resonance energy transfer (FRET), a Z′-LYTE™ FRET peptide substrate (Z′-LYTE™ Tyrosine 1 Peptide Substrate, Invitrogen, PV3190), and a secondary reaction were used to detect the inhibitory activity of the compounds on TRKs (TRK1, TRK2, TRK3) (life technologies, PV3144, PV3616, PV3617).
(§2) Enzymatic reaction: In a 384-well plate, 5 μL of an enzyme-substrate system (50 mM HEPES pH 7.5, 0.01% BRIJ-35, 10 mM MgCl2, 1 mM EGTA, 2 μM Tyr 01 Peptide Substrate) was added and 5 nL of compound (concentration gradient) was transferred thereto by using the echo520 ultramicro liquid pipetting system. […] After shaking and mixing, centrifuging was performed. A reaction was carried out at 30° C. in the dark for 1.5 hours.
(§3) The data were analyzed as follows:
(§4) Phosphorylation ratio=1−{(emission ratio×F100%−C100%)/[C0%−C100%+emission ratio×(F100%−F0%)]}×100;
(§5) Inhibition rate=100×(1−compound phosphorylation ratio/negative control phosphorylation ratio).
(§6) IC50 values were calculated by using GraphPad Prism 5.0 software.

[2] = molecular target: T2, TRKB (Homo sapiens, UniProt Q16620); assay: Z′-LYTE kinase activity assay, TRKB; type: biochemical; conditions: ATP 25 uM
T2 construct: purchased life technologies PV3616
T2 sequence (Q16620 32-822): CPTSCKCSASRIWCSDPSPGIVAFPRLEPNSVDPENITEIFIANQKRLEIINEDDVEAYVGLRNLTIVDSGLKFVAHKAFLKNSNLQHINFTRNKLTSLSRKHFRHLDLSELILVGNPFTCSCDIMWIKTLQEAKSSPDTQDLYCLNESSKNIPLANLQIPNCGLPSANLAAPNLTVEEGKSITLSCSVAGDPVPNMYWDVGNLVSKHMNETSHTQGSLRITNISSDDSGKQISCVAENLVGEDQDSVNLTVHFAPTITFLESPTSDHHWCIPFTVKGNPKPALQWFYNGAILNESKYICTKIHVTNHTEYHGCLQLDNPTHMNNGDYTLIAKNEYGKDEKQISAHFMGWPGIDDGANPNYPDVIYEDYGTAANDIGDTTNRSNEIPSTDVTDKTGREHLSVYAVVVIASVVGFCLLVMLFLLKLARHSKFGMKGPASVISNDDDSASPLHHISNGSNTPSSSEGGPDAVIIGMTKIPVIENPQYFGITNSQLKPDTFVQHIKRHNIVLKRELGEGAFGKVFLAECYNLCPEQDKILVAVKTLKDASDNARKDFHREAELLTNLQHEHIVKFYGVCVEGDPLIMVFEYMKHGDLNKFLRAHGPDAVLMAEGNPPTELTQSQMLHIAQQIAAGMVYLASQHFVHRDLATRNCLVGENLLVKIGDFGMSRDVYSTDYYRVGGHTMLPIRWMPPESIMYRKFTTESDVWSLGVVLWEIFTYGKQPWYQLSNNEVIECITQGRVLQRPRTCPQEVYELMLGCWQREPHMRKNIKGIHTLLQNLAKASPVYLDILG
From the text: as §1, §2, §3, §4, §5, §6

[3] = molecular target: T3, TRKC (Homo sapiens, UniProt Q16288); assay: Z′-LYTE kinase activity assay, TRKC; type: biochemical; conditions: ATP 50 uM
T3 construct: purchased life technologies PV3617
T3 sequence (Q16288 32-839): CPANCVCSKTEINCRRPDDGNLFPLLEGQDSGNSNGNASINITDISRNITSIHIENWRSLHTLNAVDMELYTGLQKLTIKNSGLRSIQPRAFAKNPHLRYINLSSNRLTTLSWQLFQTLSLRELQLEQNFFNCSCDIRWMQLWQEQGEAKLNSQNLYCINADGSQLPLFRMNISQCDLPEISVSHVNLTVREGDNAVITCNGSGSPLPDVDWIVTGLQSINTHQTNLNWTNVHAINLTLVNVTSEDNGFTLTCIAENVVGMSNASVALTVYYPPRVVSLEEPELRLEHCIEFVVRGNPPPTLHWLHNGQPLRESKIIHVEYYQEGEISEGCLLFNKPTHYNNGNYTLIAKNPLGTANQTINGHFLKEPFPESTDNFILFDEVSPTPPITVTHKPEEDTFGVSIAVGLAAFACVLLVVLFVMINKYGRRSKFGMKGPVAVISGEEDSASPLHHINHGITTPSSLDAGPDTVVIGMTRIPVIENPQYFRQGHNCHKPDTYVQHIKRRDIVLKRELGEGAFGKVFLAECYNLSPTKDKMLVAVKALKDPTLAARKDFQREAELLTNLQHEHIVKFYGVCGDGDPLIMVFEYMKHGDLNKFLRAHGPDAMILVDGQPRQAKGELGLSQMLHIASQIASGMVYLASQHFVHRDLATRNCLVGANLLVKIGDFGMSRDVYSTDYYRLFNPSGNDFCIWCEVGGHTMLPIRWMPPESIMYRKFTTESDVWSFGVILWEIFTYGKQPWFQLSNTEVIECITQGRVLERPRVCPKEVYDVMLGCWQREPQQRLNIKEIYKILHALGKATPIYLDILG
From the text: as §1, §2, §3, §6

[4] = molecular target: T4, BaF3-CD74-NTRK1 (Homo sapiens, UniProt P04629); assay: Cell proliferation inhibition (CCK-8), BaF3-CD74-NTRK1 stable strain; type: cell-based, mouse; conditions: BaF3-CD74-NTRK1, 72 hours
T4 construct: fused on or other part: P04233 (HLA class II histocompatibility antigen gamma chain)
T4 sequence (P04629 510-796 limits assumed): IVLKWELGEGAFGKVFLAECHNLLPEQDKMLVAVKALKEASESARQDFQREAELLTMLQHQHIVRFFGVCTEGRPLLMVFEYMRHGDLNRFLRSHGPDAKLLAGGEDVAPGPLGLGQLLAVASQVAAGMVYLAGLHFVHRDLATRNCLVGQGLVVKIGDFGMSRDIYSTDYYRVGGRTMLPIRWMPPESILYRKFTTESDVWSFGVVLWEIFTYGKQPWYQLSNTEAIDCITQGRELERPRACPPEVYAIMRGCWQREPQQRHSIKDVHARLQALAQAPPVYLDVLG
In short: (§7)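 Ba/F3 cells stably electroporated with ETV6-NTRK3, CD74-NTRK1 or ETV6-NTRK2, selected with G418 and grown without IL3, then cloned by limiting dilution.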

[5] = molecular target: T5, BaF3-ETV6-NTRK2 (Homo sapiens, UniProt Q16620); assay: Cell proliferation inhibition (CCK-8), BaF3-ETV6-NTRK2 stable strain; type: cell-based, mouse; conditions: BaF3-ETV6-NTRK2, 72 hours
T5 construct: fused on or other part: P41212 (Transcription factor ETV6)
T5 sequence (Q16620 538-822 limits assumed): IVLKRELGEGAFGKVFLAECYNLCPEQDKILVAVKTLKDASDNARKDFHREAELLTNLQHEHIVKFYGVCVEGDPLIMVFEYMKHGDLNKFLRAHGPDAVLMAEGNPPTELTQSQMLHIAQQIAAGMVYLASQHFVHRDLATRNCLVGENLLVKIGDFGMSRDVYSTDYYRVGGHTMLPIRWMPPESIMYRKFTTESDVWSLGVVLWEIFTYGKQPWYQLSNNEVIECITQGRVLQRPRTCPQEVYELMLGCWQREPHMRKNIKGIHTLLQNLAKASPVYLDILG
In short: as §7

[6] = molecular target: T6, BaF3-ETV6-NTRK3 (Homo sapiens, UniProt Q16288); assay: Cell proliferation inhibition (CCK-8), BaF3-ETV6-NTRK3 stable strain; type: cell-based, mouse; conditions: BaF3-ETV6-NTRK3, 72 hours
T6 construct: fused on or other part: P41212 (Transcription factor ETV6)
T6 sequence (Q16288 whole entry, the tested form may be a part): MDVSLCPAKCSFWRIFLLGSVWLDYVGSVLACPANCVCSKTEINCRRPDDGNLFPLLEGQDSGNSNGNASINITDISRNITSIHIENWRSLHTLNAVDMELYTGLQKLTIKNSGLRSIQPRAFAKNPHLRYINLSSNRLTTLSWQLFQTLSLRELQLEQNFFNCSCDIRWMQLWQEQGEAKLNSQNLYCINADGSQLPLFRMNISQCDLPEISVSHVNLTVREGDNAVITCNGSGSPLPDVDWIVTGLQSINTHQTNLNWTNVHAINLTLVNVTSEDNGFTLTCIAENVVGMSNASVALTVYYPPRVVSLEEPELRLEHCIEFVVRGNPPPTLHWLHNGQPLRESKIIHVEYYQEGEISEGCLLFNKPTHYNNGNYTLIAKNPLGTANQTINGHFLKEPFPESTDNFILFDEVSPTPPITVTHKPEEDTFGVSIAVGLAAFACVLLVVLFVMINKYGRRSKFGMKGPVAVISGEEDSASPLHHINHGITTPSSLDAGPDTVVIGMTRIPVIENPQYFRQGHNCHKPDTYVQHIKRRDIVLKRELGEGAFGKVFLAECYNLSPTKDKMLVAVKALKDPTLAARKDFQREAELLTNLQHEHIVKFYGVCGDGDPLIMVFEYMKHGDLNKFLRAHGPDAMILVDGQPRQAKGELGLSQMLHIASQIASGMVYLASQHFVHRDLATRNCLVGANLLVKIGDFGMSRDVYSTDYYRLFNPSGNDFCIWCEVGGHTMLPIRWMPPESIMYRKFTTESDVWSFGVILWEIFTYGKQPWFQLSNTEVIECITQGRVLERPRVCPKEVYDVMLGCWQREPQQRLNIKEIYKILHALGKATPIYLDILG
In short: as §7

T1 sequence (P04629 440-796 limits assumed): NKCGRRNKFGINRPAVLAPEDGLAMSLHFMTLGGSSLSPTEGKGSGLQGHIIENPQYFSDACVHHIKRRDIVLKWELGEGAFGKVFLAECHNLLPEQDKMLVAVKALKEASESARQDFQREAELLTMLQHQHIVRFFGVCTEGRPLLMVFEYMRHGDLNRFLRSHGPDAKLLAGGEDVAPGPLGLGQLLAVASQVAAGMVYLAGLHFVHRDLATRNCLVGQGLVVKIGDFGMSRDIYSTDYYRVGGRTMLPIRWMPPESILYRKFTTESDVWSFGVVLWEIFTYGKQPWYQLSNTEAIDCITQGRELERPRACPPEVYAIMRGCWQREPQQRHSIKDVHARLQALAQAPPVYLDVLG

SMILES | IC50 [1] | IC50 [2] | IC50 [3] | IC50 [4] | IC50 [5] | IC50 [6]
C(#Cc1n[nH]c2ccc(Cc3ccccc3)cc12)c1ccccn1 [DYX-014, 5-benzyl-3-(pyridin-2-ylethynyl)-1H-indazole] | 0.1 µM | 0.321 µM | 0.095 µM | 8.31 µM | 4.7 µM | 3.03 µM
Fc1ccccc1Cc1ccc2[nH]nc(C#Cc3ccccn3)c2c1 [DYX-021, 5-(2-fluorobenzyl)-3-(pyridin-2-ylethynyl)-1H-indazole] | 0.11 µM | 0.36 µM | 0.079 µM | 4.93 µM | 3.09 µM | 2.6 µM
Fc1cccc(Cc2ccc3[nH]nc(C#Cc4ccccn4)c3c2)c1 [DYX-025, 5-(3-fluorobenzyl)-3-(pyridin-2-ylethynyl)-1H-indazole] | 0.026 µM | 0.082 µM | 0.012 µM | 2.33 µM | 2.56 µM | 0.917 µM
Fc1ccc(Cc2ccc3[nH]nc(C#Cc4ccccn4)c3c2)cc1 [DYX-027, 5-(4-fluorobenzyl)-3-(pyridin-2-ylethynyl)-1H-indazole] | > 1 µM | > 1 µM | > 1 µM | > 10 µM | > 10 µM | > 10 µM
Fc1ccccc1Cc1ccc2[nH]nc(/C=C/c3ccccn3)c2c1 [DYX-032, (E)-5-(2-fluorobenzyl)-3-(2-(pyridin-2-yl)vinyl)-1H-indazole] | 0.0145 µM | 0.0561 µM | 0.012 µM | 1.92 µM | 2.34 µM | 0.718 µM
Fc1cccc(Cc2ccc3[nH]nc(/C=C/c4ccccn4)c3c2)c1 [DYX-038, (E)-5-(3-fluorobenzyl)-3-(2-(pyridin-2-yl)vinyl)-1H-indazole] | 0.0093 µM | 0.0324 µM | 0.0019 µM | 0.239 µM | 0.335 µM | 0.133 µM
Fc1ccc(F)c(Cc2ccc3[nH]nc(C#Cc4ccccn4)c3c2)c1 [DYX-041, 5-(2,5-difluorobenzyl)-3-(pyridin-2-ylethynyl)-1H-indazole] | 0.044 µM | 0.04 µM | 0.008 µM | 0.724 µM | 1.99 µM | 0.796 µM
Fc1ccc(Cc2ccc3[nH]nc(/C=C/c4ccccn4)c3c2)cc1 [DYX-042, (E)-5-(4-fluorobenzyl)-3-(2-(pyridin-2-yl)vinyl)-1H-indazole] | 0.251 µM | 0.281 µM | 0.114 µM | 8.71 µM | > 10 µM | 8.38 µM
Fc1ccc(Cc2ccc3[nH]nc(C#Cc4ccccn4)c3c2)cc1F [DYX-044, 5-(3,4-difluorobenzyl)-3-(pyridin-2-ylethynyl)-1H-indazole] | 0.501 µM | > 1 µM | 0.652 µM | > 10 µM | > 10 µM | > 10 µM
C(=C\c1n[nH]c2ccc(Cc3ccccc3)cc12)/c1ccccn1 [DYX-048, (E)-5-benzyl-3-(2-(pyridin-2-yl)vinyl)-1H-indazole] | 0.0332 µM | 0.0153 µM | 0.0097 µM | 0.803 µM | 0.168 µM | 0.959 µM
Fc1ccc(Cc2ccc3[nH]nc(C#Cc4ccccn4)c3c2)c(F)c1 [DYX-051, 5-(2,4-difluorobenzyl)-3-(pyridin-2-ylethynyl)-1H-indazole] | > 1 µM | > 1 µM | > 1 µM | > 10 µM | > 10 µM | > 10 µM
Fc1ccc(F)c(Cc2ccc3[nH]nc(/C=C/c4ccccn4)c3c2)c1 [DYX-054, (E)-5-(2,5-difluorobenzyl)-3-(2-(pyridin-2-yl)vinyl)-1H-indazole] | 0.0071 µM | 0.0122 µM | 0.0054 µM | 0.546 µM | 0.329 µM | 0.145 µM
Fc1ccc(Cc2ccc3[nH]nc(/C=C/c4ccccn4)c3c2)cc1F [DYX-059, (E)-5-(3,4-difluorobenzyl)-3-(2-(pyridin-2-yl)vinyl)-1H-indazole] | 0.25 µM | > 1 µM | 0.16 µM | 7.94 µM | 8.82 µM | 3.25 µM
Fc1ccc(Cc2ccc3[nH]nc(/C=C/c4ccccn4)c3c2)c(F)c1 [DYX-060, (E)-5-(2,4-difluorobenzyl)-3-(2-(pyridin-2-yl)vinyl)-1H-indazole] | 0.818 µM | 0.375 µM | 0.62 µM | > 10 µM | > 10 µM | > 10 µM
Fc1cccc(F)c1Cc1ccc2[nH]nc(C#Cc3ccccn3)c2c1 [DYX-071, 5-(2,6-difluorobenzyl)-3-(pyridin-2-ylethynyl)-1H-indazole] | 0.217 µM | 0.385 µM | 0.113 µM | 7.73 µM | 2.89 µM | 2.74 µM
Fc1cccc(Cc2ccc3[nH]nc(C#Cc4ccccn4)c3c2)c1F [DYX-074, 5-(2,3-difluorobenzyl)-3-(pyridin-2-ylethynyl)-1H-indazole] | 0.072 µM | 0.435 µM | 0.041 µM | 2.5 µM | 2.83 µM | 2.2 µM
Fc1cc(Cc2ccc3[nH]nc(C#Cc4ccccn4)c3c2)cc(F)c1F [DYX-075, 3-(pyridin-2-ylethynyl)-5-(3,4,5-trifluorobenzyl)-1H-indazole] | > 1 µM | > 1 µM | > 1 µM | 2.48 µM | > 10 µM | > 10 µM
Fc1cccc(F)c1Cc1ccc2[nH]nc(/C=C/c3ccccn3)c2c1 [DYX-081, (E)-5-(2,6-difluorobenzyl)-3-(2-(pyridin-2-yl)vinyl)-1H-indazole] | 0.0398 µM | 0.17 µM | 0.0266 µM | 1.44 µM | 1.02 µM | 0.82 µM
Fc1cccc(Cc2ccc3[nH]nc(/C=C/c4ccccn4)c3c2)c1F [DYX-082, (E)-5-(2,3-difluorobenzyl)-3-(2-(pyridin-2-yl)vinyl)-1H-indazole] | 0.0152 µM | 0.0678 µM | 0.0085 µM | 0.584 µM | 0.248 µM | 0.159 µM
Fc1cc(Cc2ccc3[nH]nc(/C=C/c4ccccn4)c3c2)cc(F)c1F [DYX-083, (E)-3-(2-(pyridin-2-yl)vinyl)-5-(3,4,5-trifluorobenzyl)-1H-indazole] | 0.628 µM | > 1 µM | 0.191 µM | 7.5 µM | 3.02 µM | 3.31 µM
Fc1cc(F)cc(Sc2ccc3[nH]nc(C#Cc4ccccn4)c3c2)c1 [DYX-086, 5-((3,5-difluorophenyl)thio)-3-(pyridin-2-ylethynyl)-1H-indazole] | 0.0542 µM | 0.241 µM | 0.111 µM | 3.6 µM | 2.6 µM | 3.71 µM
Fc1cc(F)cc(Sc2ccc3[nH]nc(/C=C/c4ccccn4)c3c2)c1 [DYX-090, (E)-5-((3,5-difluorophenyl)thio)-3-(2-(pyridin-2-yl)vinyl)-1H-indazole] | 0.0099 µM | 0.0799 µM | 0.0357 µM | 0.48 µM | 0.295 µM | 0.158 µM
Fc1cc(F)cc(Oc2ccc3[nH]nc(C#Cc4ccccn4)c3c2)c1 [DYX-092, 5-(3,5-difluorophenoxy)-3-(pyridin-2-ylethynyl)-1H-indazole] | 0.0517 µM | 0.31 µM | 0.2 µM | 3.06 µM | 2.61 µM | 2.77 µM
Fc1cc(F)cc(Oc2ccc3[nH]nc(/C=C/c4ccccn4)c3c2)c1 [DYX-101, (E)-5-(3,5-difluorophenoxy)-3-(2-(pyridin-2-yl)vinyl)-1H-indazole] | 0.0218 µM | 0.0366 µM | 0.0248 µM | 0.595 µM | 0.571 µM | 0.5 µM
O=S(=O)(c1cc(F)cc(F)c1)c1ccc2[nH]nc(C#Cc3ccccn3)c2c1 [DYX-108, 5-((3,5-difluorophenyl)sulfonyl)-3-(pyridin-2-ylethynyl)-1H-indazole] | 0.0081 µM | 0.0431 µM | 0.0214 µM | 0.888 µM | 0.914 µM | 0.749 µM
O=S(=O)(c1cc(F)cc(F)c1)c1ccc2[nH]nc(/C=C/c3ccccn3)c2c1 [DYX-114, (E)-5-((3,5-difluorophenyl)sulfonyl)-3-(2-(pyridin-2-yl)vinyl)-1H-indazole] | 0.0012 µM | 0.007 µM | 0.0028 µM | 0.411 µM | 0.175 µM | 0.155 µM
